# Assay results taken from patent US20250090530A1, “COMBINATIONS FOR THE TREATMENT OF CANCER” (Terns Pharmaceuticals, Inc., priority 2023, published 2025).
# Assays:
# [1] = system: BaF3-BCR-ABL-T315I; test: Expanded combination matrix, excess over Bliss; format: cell-based; conditions: 72 hours
# [2] = system: Ku812; test: Fixed molar combinations with active site TKIs, curve shift and isobologram analyses (CellTiter-Glo viability); format: cell-based
# [3] = system: BaF3BCR-ABL-T315I; test: Fixed molar combinations, curve shift and isobologram analyses; format: cell-based; conditions: 72 hours
# [4] = system: K562; test: Fixed molar combinations with active site TKIs, curve shift and isobologram analyses (CellTiter-Glo viability); format: cell-based
# [5] = system: K562; test: Expanded combination matrix, BLISS synergy (CellTiter-Glo viability); format: cell-based
# [6] = system: Ku812; test: as above; format: cell-based
# [7] = system: kinase panel; test: In vitro kinase panel (substrate phosphorylation assays); format: biochemical; conditions: at 1 μM
smiles,measurement,setting,value
"O=C(Nc1ccc(OC(F)(F)Cl)cc1)c1cnc(N2CC[C@@H](O)C2)c(-c2cc[nH]n2)c1 [Asciminib, asciminib]",Excess over Bliss score sum,[1]; Compound 2 dasatinib,3.19
same,Highest excess over Bliss score,[1]; Compound 2 dasatinib,0.27
same,Excess over Bliss score sum,[1]; Compound 2 flumatinib,0.81
same,Highest excess over Bliss score,[1]; Compound 2 flumatinib,0.15
same,Excess over Bliss score sum,[1]; Compound 2 imatinib,1.29
same,Highest excess over Bliss score,[1]; Compound 2 imatinib,0.15
same,Excess over Bliss score sum,[1]; Compound 2 nilotinib,0.36
same,Highest excess over Bliss score,[1]; Compound 2 nilotinib,0.05
same,Excess over Bliss score sum,[1]; Compound 2 ponatinib,0.83
same,Highest excess over Bliss score,[1]; Compound 2 ponatinib,0.14
same,Summary of Observations (synergy by curve shift and isobologram analyses),[2]; combination partner Dasatinib,Additivity
same,Summary of Observations (synergy by curve shift and isobologram analyses),[2]; combination partner Imatinib,Additivity
same,Summary of Observations (synergy by curve shift and isobologram analyses),[2]; combination partner Ponatinib,Additivity
same,Conclusion (synergy by curve shift and isobologram analyses),[3]; Reference dasatinib,synergy
same,Conclusion (synergy by curve shift and isobologram analyses),[3]; Reference flumatinib,no synergy
same,Conclusion (synergy by curve shift and isobologram analyses),[3]; Reference nilotinib,no synergy
same,Summary of Observations (synergy by curve shift and isobologram analyses),[4]; combination partner Dasatinib,Synergy at IC90
same,Summary of Observations (synergy by curve shift and isobologram analyses),[4]; combination partner Imatinib,Synergy at IC75 and IC90
same,Summary of Observations (synergy by curve shift and isobologram analyses),[4]; combination partner Ponatinib,Synergy at IC75 and IC90
"C[C@H](CO)n1c(C(F)F)nc2cc(C(=O)Nc3ccc(OC(F)(F)Cl)cc3)cc(-c3cncnc3)c21 [Compound A, (R)—N-(4-(chlorodifluoromethoxy)phenyl)-2-(difluoromethyl)-1-(1-hydroxypropan-2-yl)-7-(pyrimidin-5-yl)-1H-benzo[d]imidazole-5-carboxamide]",Strongest BLISS score,[5]; combination partner Dasatinib,0.16
same,Summary of Observations (BLISS synergy),[5]; combination partner Dasatinib,BLISS synergy
same,Strongest BLISS score,[5]; combination partner Imatinib,0.12
same,Summary of Observations (BLISS synergy),[5]; combination partner Imatinib,BLISS synergy
same,Strongest BLISS score,[5]; combination partner Ponatinib,0.17
same,Summary of Observations (BLISS synergy),[5]; combination partner Ponatinib,BLISS synergy
same,Strongest BLISS score,[6]; combination partner Dasatinib,0.08
same,Summary of Observations (BLISS synergy),[6]; combination partner Dasatinib,Weak synergy observed
same,Strongest BLISS score,[6]; combination partner Imatinib,0.05
same,Summary of Observations (BLISS synergy),[6]; combination partner Imatinib,Weak synergy observed
same,Strongest BLISS score,[6]; combination partner Ponatinib,0.07
same,Summary of Observations (BLISS synergy),[6]; combination partner Ponatinib,Weak synergy observed
same,Interaction in in vitro combination studies,[2]; with multiple TKIs,at least additively
same,Interaction in in vitro combination studies,[4]; with multiple TKIs,works synergistically
same,Inhibition of any kinase in in vitro kinase panel,[7],≤ 50%
